Assay [1] concerns the target T1, Muscarinic acetylcholine receptor M5 (Homo sapiens, UniProt P08912). Note: in other assays of this panel Not Active means under 50% inhibition at 10 µM.
T1 sequence (P08912 whole entry): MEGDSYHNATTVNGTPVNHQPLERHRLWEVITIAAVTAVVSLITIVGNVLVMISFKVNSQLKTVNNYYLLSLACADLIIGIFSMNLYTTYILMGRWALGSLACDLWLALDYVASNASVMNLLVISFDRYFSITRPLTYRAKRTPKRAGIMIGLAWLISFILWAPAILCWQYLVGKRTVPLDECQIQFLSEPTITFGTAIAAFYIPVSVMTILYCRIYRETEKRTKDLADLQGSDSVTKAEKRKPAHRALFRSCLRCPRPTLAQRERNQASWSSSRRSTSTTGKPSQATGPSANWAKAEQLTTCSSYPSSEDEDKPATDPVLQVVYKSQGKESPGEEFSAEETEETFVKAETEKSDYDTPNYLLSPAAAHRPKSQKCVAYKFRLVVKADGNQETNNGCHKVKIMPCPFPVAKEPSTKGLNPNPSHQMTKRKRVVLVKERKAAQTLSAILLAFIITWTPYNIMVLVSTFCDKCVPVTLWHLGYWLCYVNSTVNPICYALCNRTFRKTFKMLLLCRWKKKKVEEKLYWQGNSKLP
It is filed as cell membranes, CHO-K1, Membrane.

Assay [2] in a line: DRUGMATRIX: GABAA, Chloride Channel, TBOB radioligand binding (ligand: [3H] TBOB). The format is cell membranes, Rattus norvegicus, Wistar, Cerebral cortex, Membrane. The conditions noted are these: Not Active = under 50% inhibition at 10 µM.
Another assay deals with Vasopressin V1a receptor (Homo sapiens, UniProt P37288). It is filed as cell membranes, Membrane. The note with it: hek293.
Sequence of Vasopressin V1a receptor (P37288 whole entry): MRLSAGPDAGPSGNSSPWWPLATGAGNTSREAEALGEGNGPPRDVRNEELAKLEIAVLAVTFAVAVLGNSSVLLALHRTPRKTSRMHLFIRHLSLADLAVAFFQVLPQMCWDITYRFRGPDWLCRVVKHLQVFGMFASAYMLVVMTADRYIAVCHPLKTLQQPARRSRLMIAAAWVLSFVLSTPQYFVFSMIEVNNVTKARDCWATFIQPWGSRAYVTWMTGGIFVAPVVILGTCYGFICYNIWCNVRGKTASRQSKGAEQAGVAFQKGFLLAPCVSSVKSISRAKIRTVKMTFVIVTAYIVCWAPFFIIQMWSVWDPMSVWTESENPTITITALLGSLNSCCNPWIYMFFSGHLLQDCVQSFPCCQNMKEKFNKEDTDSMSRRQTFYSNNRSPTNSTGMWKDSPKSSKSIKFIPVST
Assay [3] in a line: DRUGMATRIX: Sodium/nucleoside co-transporter radioligand binding (ligand: nitrobenzylthioinosine). The note with it: Not Active = under 50% inhibition at 10 µM. The format is cell membranes, Cavia porcellus, Dunkin-Hartley, Cerebral cortex, Membrane.
Assay [4] addresses Aldo-keto reductase family 1 member B1 (Rattus norvegicus, UniProt P07943). The assay can be described thus: biochemical. It is filed as tissue-based, Lens of camera-type eye.
In the next assay the target is Nitric oxide synthase 1 (Rattus norvegicus, UniProt P29476). The format is tissue-based, Cerebellum. Note: in other assays of this panel Not Active means under 50% inhibition at 10 µM.
Sequence of Nitric oxide synthase 1 (P29476 whole entry): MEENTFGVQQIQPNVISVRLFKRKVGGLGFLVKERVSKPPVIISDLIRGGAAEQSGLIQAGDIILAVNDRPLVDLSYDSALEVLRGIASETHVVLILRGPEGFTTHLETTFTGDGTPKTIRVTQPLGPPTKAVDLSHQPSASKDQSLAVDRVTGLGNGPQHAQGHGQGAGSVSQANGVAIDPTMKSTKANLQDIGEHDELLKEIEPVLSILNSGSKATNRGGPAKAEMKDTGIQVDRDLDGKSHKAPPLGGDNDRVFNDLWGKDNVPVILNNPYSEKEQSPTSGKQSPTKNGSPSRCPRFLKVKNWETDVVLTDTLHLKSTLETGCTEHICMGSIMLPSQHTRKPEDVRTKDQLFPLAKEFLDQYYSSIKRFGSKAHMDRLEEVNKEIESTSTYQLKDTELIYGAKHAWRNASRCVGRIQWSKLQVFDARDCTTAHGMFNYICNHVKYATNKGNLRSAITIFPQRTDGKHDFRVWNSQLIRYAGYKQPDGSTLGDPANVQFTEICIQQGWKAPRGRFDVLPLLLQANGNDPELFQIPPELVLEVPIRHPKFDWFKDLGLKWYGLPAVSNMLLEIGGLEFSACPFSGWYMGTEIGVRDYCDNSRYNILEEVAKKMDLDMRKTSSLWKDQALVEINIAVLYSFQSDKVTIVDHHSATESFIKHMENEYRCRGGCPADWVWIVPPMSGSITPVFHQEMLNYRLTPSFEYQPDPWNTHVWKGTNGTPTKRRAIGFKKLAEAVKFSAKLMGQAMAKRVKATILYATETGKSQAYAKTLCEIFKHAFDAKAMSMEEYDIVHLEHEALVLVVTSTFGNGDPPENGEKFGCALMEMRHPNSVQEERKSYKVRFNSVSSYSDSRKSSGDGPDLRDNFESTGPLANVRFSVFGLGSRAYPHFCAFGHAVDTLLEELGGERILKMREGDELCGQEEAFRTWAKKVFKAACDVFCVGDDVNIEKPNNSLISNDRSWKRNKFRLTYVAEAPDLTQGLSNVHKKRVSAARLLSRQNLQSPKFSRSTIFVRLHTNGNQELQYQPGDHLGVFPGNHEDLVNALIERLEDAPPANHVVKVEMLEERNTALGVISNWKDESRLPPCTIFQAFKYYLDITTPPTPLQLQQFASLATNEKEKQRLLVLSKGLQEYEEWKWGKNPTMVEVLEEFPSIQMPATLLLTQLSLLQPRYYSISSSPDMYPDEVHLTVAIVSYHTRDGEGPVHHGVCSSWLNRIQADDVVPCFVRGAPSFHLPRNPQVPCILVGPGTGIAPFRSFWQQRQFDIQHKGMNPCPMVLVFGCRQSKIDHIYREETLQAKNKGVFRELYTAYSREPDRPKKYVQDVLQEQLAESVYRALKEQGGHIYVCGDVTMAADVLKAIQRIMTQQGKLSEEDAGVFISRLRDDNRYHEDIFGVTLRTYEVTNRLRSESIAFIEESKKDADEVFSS

The structures appear in SMILES notation.

Experimental findings from ChEMBL document CHEMBL1909046, “DrugMatrix in vitro pharmacology data” are described below.

As to `C#C[C@]1(O)CC[C@H]2[C@@H]3[C@H](C)CC4=C(CCC(=O)C4)[C@H]3CC[C@@]21C` [TIBOLONE], the IC50 entry (in assay [1] (cho-k1); in assay [2]; at Vasopressin V1a receptor; in assay [3]; in assay [4]; on Nitric oxide synthase 1) was “Not Active” in each case. For the same molecule, the Ki result in assay [2] and in assay [3] was “Not Active” in each case.

Turning to `C[C@]12CCC(=O)C[C@@H]1CC[C@@H]1[C@@H]2CC[C@]2(C)[C@@H](O)CC[C@@H]12` [STANOLONE], the IC50 result (in assay [1] (cho-k1); in assay [2]; against Vasopressin V1a receptor; in assay [3]; in assay [4]; at Nitric oxide synthase 1) was “Not Active” throughout. Moreover, the inhibition constant (Ki) entry in assay [2] and in assay [3] was “Not Active” in each case.

For `CC(C)(C)NC[C@H](O)COc1cccc2c1CCCC2=O` [LEVOBUNOLOL], the IC50 result (in assay [1] (cho-k1); in assay [2]; against Vasopressin V1a receptor; in assay [3]; in assay [4]; at Nitric oxide synthase 1) was “Not Active” throughout. Also, the Ki entry in assay [2] and in assay [3] was “Not Active” throughout.

Regarding `CCN1CCCC1CNC(=O)c1cc(S(N)(=O)=O)ccc1OC` (stereo not drawn) [SULPIRIDE], the IC50 result (in assay [1] (cho-k1); in assay [2]; on Vasopressin V1a receptor; in assay [3]; in assay [4]; against Nitric oxide synthase 1) was “Not Active” in each case. Besides, the inhibitory constant (Ki) entry in assay [2] and in assay [3] was “Not Active” in each case.

Turning to `CCN(CC)C(=S)SSC(=S)N(CC)CC`, the IC50 entry in assay [1] (cho-k1) was “Not Active”; in assay [2], “Not Active”; at Vasopressin V1a receptor, “Not Active”; in assay [3] (read-out: IC50) it was 16.9 µM; in assay [4] it was “Not Active”; on Nitric oxide synthase 1, “Not Active”. Moreover, the Ki result in assay [2] was “Not Active”; in assay [3] (read-out: Ki), 5.79 µM.

For the molecule `OC[C@@H](O)[C@@H](O)[C@H](O)[C@H](O)CO` [MANNITOL], the half-inhibitory concentration (IC50) entry (in assay [1] (cho-k1); in assay [2]; on Vasopressin V1a receptor; in assay [3]; in assay [4]; against Nitric oxide synthase 1) was “Not Active” each time. The inhibition constant (Ki) entry in assay [2] and in assay [3] was “Not Active” in each case.

In the case of `C[N+]1(C)[C@@H]2C[C@@H](OC(=O)[C@H](CO)c3ccccc3)C[C@H]1[C@@H]1O[C@@H]12.[Br-]` [METHSCOPOLAMINE BROMIDE], the IC50 result (in assay [2]; on Vasopressin V1a receptor; in assay [3]; in assay [4]; against Nitric oxide synthase 1) was “Not Active” throughout. Also, the inhibitory constant (Ki) entry in assay [2] and in assay [3] was “Not Active” in each case.

`CCN(CC)CCNC(=O)c1cc(Cl)c(N)cc1OC` [METOCLOPRAMIDE]: the IC50 entry (in assay [1] (cho-k1); in assay [2]; at Vasopressin V1a receptor; in assay [3]; in assay [4]; against Nitric oxide synthase 1) was “Not Active” in each case. The inhibition constant Ki result in assay [2] and in assay [3] was “Not Active” throughout.

For `CC(=O)O[C@]1(C(C)=O)CC[C@H]2[C@@H]3C[C@H](C)C4=CC(=O)CC[C@]4(C)[C@H]3CC[C@@]21C` [MEDROXYPROGESTERONE ACETATE], the IC50 result (in assay [1] (cho-k1); in assay [2]; at Vasopressin V1a receptor; in assay [3]; in assay [4]; at Nitric oxide synthase 1) was “Not Active” each time. The Ki result in assay [2] and in assay [3] was “Not Active” throughout.

For the molecule `Cc1ccnc(NS(=O)(=O)c2ccc(N)cc2)n1` [SULFAMERAZINE], the IC50 entry (in assay [1] (cho-k1); in assay [2]; at Vasopressin V1a receptor; in assay [3]; in assay [4]; against Nitric oxide synthase 1) was “Not Active” each time. The Ki result in assay [2] and in assay [3] was “Not Active” in each case.

Regarding `O=C(c1ccccc1)c1ccc2n1CCC2C(=O)O` (stereo not drawn) [KETOROLAC], the concentration for half-maximal inhibition (IC50) result in assay [1] (cho-k1) was “Not Active”; in assay [2], “Not Active”; on Vasopressin V1a receptor, “Not Active”; in assay [3], “Not Active”; in assay [4] (read-out: IC50) it was 6.11 µM; at Nitric oxide synthase 1, “Not Active”. Further, the inhibitory constant (Ki) result in assay [2] and in assay [3] was “Not Active” each time.

Consider `Cc1nnc(NS(=O)(=O)c2ccc(N)cc2)s1` [SULFAMETHIZOLE], for which the 50% inhibitory concentration (IC50) entry (in assay [1] (cho-k1); in assay [2]; against Vasopressin V1a receptor; in assay [3]; in assay [4]; on Nitric oxide synthase 1) was “Not Active” throughout. The Ki entry in assay [2] and in assay [3] was “Not Active” throughout.

Take `CCC(C)(C)C(=O)O[C@H]1C[C@@H](C)C=C2C=C[C@H](C)[C@H](CC[C@@H]3C[C@@H](O)CC(=O)O3)[C@H]21` [SIMVASTATIN]: the IC50 result (in assay [1] (cho-k1); in assay [2]; against Vasopressin V1a receptor; in assay [3]; in assay [4]; against Nitric oxide synthase 1) was “Not Active” throughout. In addition, the Ki entry in assay [2] and in assay [3] was “Not Active” in each case.

Turning to `Oc1ccc(/C=C/c2cc(O)cc(O)c2)cc1` [RESVERATROL], the IC50 entry (in assay [1] (cho-k1); in assay [2]; against Vasopressin V1a receptor; in assay [3]; in assay [4]; against Nitric oxide synthase 1) was “Not Active” in each case. For the same molecule, the inhibition constant (Ki) entry in assay [2] and in assay [3] was “Not Active” in each case.

For the molecule `Cc1cnc(NC(=O)C2=C(O)c3ccccc3S(=O)(=O)N2C)s1` [MELOXICAM], the half-inhibitory concentration (IC50) result (in assay [1] (cho-k1); in assay [2]; against Vasopressin V1a receptor; in assay [3]; in assay [4]; against Nitric oxide synthase 1) was “Not Active” throughout. Further, the Ki entry in assay [2] and in assay [3] was “Not Active” throughout.

Turning to `CC[C@H](C)[C@@H](CO[C@@H](Cc1ccccc1)C(=O)N[C@@H](CCS(C)(=O)=O)C(=O)OC(C)C)NC[C@@H](N)CS`, the 50% inhibitory concentration (IC50) result (in assay [1] (cho-k1); in assay [2]; against Vasopressin V1a receptor; in assay [3]; in assay [4]; against Nitric oxide synthase 1) was “Not Active” each time. In addition, the inhibitory constant (Ki) result in assay [2] and in assay [3] was “Not Active” each time.

On to `O=C1CC[C@@]2(O)[C@H]3Cc4ccc(O)c5c4[C@@]2(CCN3CC2CC2)[C@H]1O5` [NALTREXONE], for which the half-maximal inhibitory concentration (IC50) result (in assay [1] (cho-k1); in assay [2]; against Vasopressin V1a receptor; in assay [3]; in assay [4]; against Nitric oxide synthase 1) was “Not Active” in each case. The Ki result in assay [2] and in assay [3] was “Not Active” throughout.

Take `CNCCCC12CCC(c3ccccc31)c1ccccc12` [MAPROTILINE]: the IC50 was 0.16 µM in assay [1] (read-out: IC50), “Not Active” against Vasopressin V1a receptor, “Not Active” in assay [4] and “Not Active” against Nitric oxide synthase 1. Also, in assay [1] (read-out: Ki), the inhibition constant Ki came out at 0.115 µM.

As for `CN(C)CCC=C1c2ccccc2COc2ccccc21` [DOXEPIN], the IC50 result (against Vasopressin V1a receptor; in assay [4]; against Nitric oxide synthase 1) was “Not Active” in each case.

As for `C=CCc1ccc2c(c1)OCO2` [SAFROLE], the IC50 entry (in assay [1] (cho-k1); in assay [2]; at Vasopressin V1a receptor; in assay [3]; in assay [4]; against Nitric oxide synthase 1) was “Not Active” in each case. Also, the inhibition constant Ki result in assay [2] and in assay [3] was “Not Active” each time.

As to `O=[As][O-].[Na+]` [SODIUM ARSENITE], the IC50 result (in assay [1] (cho-k1); in assay [2]; against Vasopressin V1a receptor; in assay [3]; in assay [4]; against Nitric oxide synthase 1) was “Not Active” in each case. The inhibition constant Ki result in assay [2] and in assay [3] was “Not Active” throughout.

As to `Cc1cn([C@H]2C=C[C@@H](CO)O2)c(=O)[nH]c1=O` [STAVUDINE], the IC50 entry (in assay [1] (cho-k1); in assay [2]; at Vasopressin V1a receptor; in assay [3]; in assay [4]; on Nitric oxide synthase 1) was “Not Active” each time. For the same molecule, the Ki entry in assay [2] and in assay [3] was “Not Active” in each case.

With `COC(=O)Nc1nc2ccc(C(=O)c3ccccc3)cc2[nH]1` [MEBENDAZOLE], the IC50 result (in assay [1] (cho-k1); in assay [2]; against Vasopressin V1a receptor; in assay [3]; in assay [4]; at Nitric oxide synthase 1) was “Not Active” throughout. Further, the inhibitory constant (Ki) result in assay [2] and in assay [3] was “Not Active” in each case.

`Cc1cc2c(s1)Nc1ccccc1N=C2N1CCN(C)CC1` [OLANZAPINE]: the IC50 result (against Vasopressin V1a receptor; in assay [4]; against Nitric oxide synthase 1) was “Not Active” in each case.
